Source: patent US20160030406A1, “CORRECTORS ACTING THROUGH MSD1 OF CFTR PROTEIN” (VERTEX PHARMACEUTICALS INCORPORATED, priority 2013, published 2016)

What was measured:
[1] = target: T1, CFTR fragments (CFTR^370, CFTR^373, CFTR^375, CFTR^380, CFTR^430, CFTR^530, CFTR^653) (Homo sapiens, UniProt P13569); assay: CFTR fragment steady-state accumulation by immunoblot in HEK293 cells; assay type: cell-based; details: HEK293, 4 hours bortezomib
T1 construct: expressed in transfected cells; host or cells: HEK293, transient transfection
Procedure: Steady-state levels of CFTR and its mutants are determined by western blot analysis. HEK293 cells are transiently transfected with the indicated plasmids (Grove, et al., 2011, Mol Biol Cell, 22: 301-14). The transfected cells are allowed to recover for approximately 18 hrs before addition of DMEM and then supplemented with lumacaftor or DMSO (control). The cells are incubated with the correctors for 24 hrs before isolating the cells for western blot analysis. The harvested cells are diluted with 2×SDS sample buffer (100 mM Tris-HCl (pH 6.8)/4% SDS/0.05% Bromophenol Blue/20% glycerol), sonicated, and heated at 37° C. prior to resolving the proteins on SDS-PAGE gels. The proteins are transferred to nitrocellulose membranes and the membranes are probed with the designated antibodies. β-tubulin is used to indicate loading controls.
To localize the region in CFTR on which lumacaftor acts to correct ΔF508-CFTR misfolding, immunoblot and pulse-chase studies are used to monitor the impact of the drug on the accumulation of a set of CFTR and ΔF508-CFTR fragments that expose surfaces present on CFTR folding intermediates.
A set of CFTR fragments with domain boundaries that permitted them to accumulate in unstable or stable states are expressed in HEK293 cells, and the effect of 5 μM lumacaftor on the accumulation of different fragments is determined. As a point of reference, the impact of the proteasome inhibitor bortezomib on CFTR fragment accumulation is also measured.
Cells are treated for 4 hours with bortezomib or 18 hours at 37° C. with lumacaftor. The amount of CFTR fragment accumulation is determined by immunoblot.
To evaluate whether the 362-380 helix is critical for MSD1 folding, the accumulation and sensitivity to lumacaftor of CFTR^373, CFTR^375, and CFTR^380 is analyzed. CFTR^373 accumulation is similar to that of CFTR^370 and insensitive to lumacaftor. CFTR^375 accumulation is similar to CFTR^370, but its amounts are increased around 6-fold by lumacaftor. […] Maximal accumulation of CFTR^380 occurs at 5 μM lumacaftor.

[2] = target: T2, ΔF508-CFTR (Homo sapiens, UniProt P13569, DEL508-508); details: bronchial epithelial cells from CF subjects; cited from earlier work
T2 construct: endogenous in cells; host or cells: primary human bronchial epithelial cells from CF subjects homozygous for ΔF508
T2 sequence (P13569 with tags, fused parts or gaps DEL508-508): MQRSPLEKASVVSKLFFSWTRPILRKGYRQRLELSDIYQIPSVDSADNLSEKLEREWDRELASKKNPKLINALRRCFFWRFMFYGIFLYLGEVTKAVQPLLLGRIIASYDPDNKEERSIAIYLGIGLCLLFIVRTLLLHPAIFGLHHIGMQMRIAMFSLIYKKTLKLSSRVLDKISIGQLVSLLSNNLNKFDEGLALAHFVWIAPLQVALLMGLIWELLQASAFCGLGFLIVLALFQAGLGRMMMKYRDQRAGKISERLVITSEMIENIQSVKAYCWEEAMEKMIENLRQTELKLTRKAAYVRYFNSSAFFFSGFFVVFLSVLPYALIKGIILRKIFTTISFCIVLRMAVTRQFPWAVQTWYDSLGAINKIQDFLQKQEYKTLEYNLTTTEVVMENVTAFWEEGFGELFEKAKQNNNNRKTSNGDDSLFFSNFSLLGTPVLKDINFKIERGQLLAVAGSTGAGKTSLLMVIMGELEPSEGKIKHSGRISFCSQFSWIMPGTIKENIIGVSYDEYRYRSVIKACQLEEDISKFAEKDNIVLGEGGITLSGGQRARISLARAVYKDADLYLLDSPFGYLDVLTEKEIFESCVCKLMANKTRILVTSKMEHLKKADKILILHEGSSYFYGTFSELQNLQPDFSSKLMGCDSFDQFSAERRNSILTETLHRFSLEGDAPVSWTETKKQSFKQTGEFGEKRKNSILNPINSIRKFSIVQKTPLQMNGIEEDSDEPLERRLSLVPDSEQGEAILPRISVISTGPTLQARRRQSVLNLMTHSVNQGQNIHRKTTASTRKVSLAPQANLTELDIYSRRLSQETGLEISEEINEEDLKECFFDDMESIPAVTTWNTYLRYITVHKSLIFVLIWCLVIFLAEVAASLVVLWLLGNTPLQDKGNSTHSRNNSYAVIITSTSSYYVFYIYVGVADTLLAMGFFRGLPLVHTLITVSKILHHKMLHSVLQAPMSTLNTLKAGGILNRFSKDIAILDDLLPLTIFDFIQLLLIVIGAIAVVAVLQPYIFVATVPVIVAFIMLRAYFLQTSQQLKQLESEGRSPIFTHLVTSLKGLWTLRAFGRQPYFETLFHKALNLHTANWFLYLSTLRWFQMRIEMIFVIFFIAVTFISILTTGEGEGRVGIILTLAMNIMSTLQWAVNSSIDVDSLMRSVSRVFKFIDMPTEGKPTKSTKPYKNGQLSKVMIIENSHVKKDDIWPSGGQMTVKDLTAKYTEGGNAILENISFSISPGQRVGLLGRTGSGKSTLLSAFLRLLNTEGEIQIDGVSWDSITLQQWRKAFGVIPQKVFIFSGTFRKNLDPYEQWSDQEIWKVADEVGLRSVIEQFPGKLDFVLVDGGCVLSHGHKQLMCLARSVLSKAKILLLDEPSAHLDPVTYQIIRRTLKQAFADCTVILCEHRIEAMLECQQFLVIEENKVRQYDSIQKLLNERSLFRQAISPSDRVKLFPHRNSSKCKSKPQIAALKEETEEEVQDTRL

Structure (SMILES)	accumulation of CFTR^430, sensitivity to proteasome inhibition [1]	accumulation of CFTR^653, sensitivity to proteasome inhibition [1]	increase in accumulation of CFTR^370 [1]	increase in accumulation of CFTR^530 [1]	ΔF508-CFTR function [2]
CC(C)C[C@H](NC(=O)[C@H](Cc1ccccc1)NC(=O)c1cnccn1)B(O)O [bortezomib]	relatively insensitive	relatively insensitive	10 fold	10 fold	–
COc1ccc(Cl)cc1Nc1nc(-c2sc(NC(=O)c3ccccc3)nc2C)cs1 [Corr-4a]	–	–	–	–	partially restored
